Experimental data reported in US20240287065A1, “COMPOUND AS CDK KINASE INHIBITOR AND USE THEREOF” (TYK MEDICINES (ZHENGZHOU) , INC., priority 2021, published 2024).
Where two headings read alike, the source gives them in different places.

What was measured:
MCF-7-Palbo-R cells = experiment: MCF-7-Palbo-R cell antiproliferative assay (BrdU ELISA); assay type: cell-based; conditions: for IC50: 72 hours, BrdU; for Bottom(%): bottom of inhibition curve; for Top(%): top of inhibition curve
Method: 1. Experimental Materials • MCF-7/palbo-R • EMEM medium (ATCC, 30-2003); DMEM/F12 medium (Gibco-1 1330-032) • Fetal bovine serum (cellmax-SA21 1.02) • DMSO (SIGMA, D2650) • BrdU ELISA cell proliferation assay kit (Roche, 11647229001) • ELISA (e.g. MD-SpectraMax ID5 or EnVision)
2. Experimental protocol • 1. Cell spreading • 1) Cells were counted, the concentration of cell suspension was adjusted • 2) The MCF7/Palbo-R cell suspension was seeded in 96-well plates at […] volume to make the number of cells per well is 4000-5000; • 3) Blank control group was added with 90 μl of culture medium; • 2. […] A 3-fold serial gradient dilution was performed with 0.1% DMSO medium for a total of 9 concentrations, and the concentrations of the compounds after dilution were as follows: • 10000 nM, 3333.33 nM, 1111.11 nM, 370.34 nM, 123.45 nM, 41.15 nM, 13.72 nM, 4.57 nM, and 1.52 nM. • b) After 72 hours of compound treatment. • 1) A 10 mM of Brdu stock solution was diluted with RPMI medium and added to a 96-well plate at 20 uL/well and shaken at 350 rpm for 10 minutes. • 2) The 96 well plate was placed back into the incubator for 1 or 2 hours. • 3) After the medium was removed from the 96-well plate, 200 ul/well of Fixation/Denaturation solution was added and incubated for 30 minutes at room temperature. • 4) The fixation solution was removed and 100 ul of peroxidase-coupled anti-Brdu antibody solution (antibody dilution prepared at 1:100 dilution) was added, • and incubated at 350 rpm for 1 hour at room temperature. • 6) The 96-well plate was washed three times with 300 ul/well of PBS. • 8) 100ul of peroxidase substrate solution was added and shaken at 350 rpm for about 10-20 minutes at room temperature, • until the DMSO-treated cell control wells turn a medium blue color. If a color is too dark, it will cause the absorbance value to out of the reading range. • 9) The reaction was terminated by the addition of 25 ul of 1 M sulfuric acid. Shake to ensure uniform color. • 10) The absorbance at 450 nm was recorded. • 3. Data analysis • The inhibition rate is calculated using the following equation:
IR (%)=(1−(RLU compound−RLU blank)/(RLU control−RLU blank))*100%.

CDK2/CycE1 = CDK2/CycE1 (Homo sapiens, UniProt P24941); experiment: Enzyme activity test; assay type: biochemical;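 also: values come from the source column headed CDK2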
In short: (§1)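 Compounds ([…] DMSO stock) were preincubated 30 min at room temperature with enzyme, substrate and cofactor before ATP addition. The reaction ran 150 min at room temperature and was read on EZ Reader (mobility shift). Percent inhibition was calculated against DMSO and no-enzyme controls.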

CDK4/CycD3 = CDK4/CycD3 (Homo sapiens, UniProt P11802); experiment: Enzyme activity test; assay type: biochemical;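 also: values come from the source column headed CDK4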
In short: as §1

CDK6/CycD1 = CDK6/CycD1 (Homo sapiens, UniProt Q00534); experiment: Enzyme activity test; assay type: biochemical;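 also: values come from the source column headed CDK6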
In short: as §1

OVCAR-3 cells = experiment: OVCAR-3 xenograft tumor model; assay type: in vivo; conditions: 30 mg/kg, oral tube feeding twice daily for 21 days, BALB/c nude female mice
Method: OVCAR-3 cells were cultured in RPMI1640 culture medium containing 20% fetal bovine serum and 10 μg/mL Insalin. Cells in the exponential growth phase were collected, and the cells were resuspended in the mixed solution of PBS and Matrigel in a ratio of 1:1 to a suitable concentration for subcutaneous tumor inoculation in nude mice.
To establish a xenograft tumor model, 1×10^7 OVCAR-3 cells were suspended in 0.2 mL of a mixture of PBS and Matrigel (1:1) and injected subcutaneously into 6-8-week-old BALB/c nube female mice on the right back. Tumor growth was observed periodically, and the volume (volume=½[…](length×width 2)) was measured with a vernier caliper. When the tumors grew to an average volume of 100˜150 mm^3, the drug was administered to mice (27 days after inoculation) in random groups according to the tumor size and their body weights. […] Tumor volume and animal weight were measured twice a week and continued until the end of the experiment. Dosing day was defined as day 0. Measurement time points were day 0, day 3, day 7, day 10, day 14, day 17 and day 21. All mice were euthanized by cervical dislocation. At the end of the experiment, tumors were collected and weighed to calculate TGI values (see Table 5).

Chain of CDK6/CycD1 (Q00534 whole entry, species assumed): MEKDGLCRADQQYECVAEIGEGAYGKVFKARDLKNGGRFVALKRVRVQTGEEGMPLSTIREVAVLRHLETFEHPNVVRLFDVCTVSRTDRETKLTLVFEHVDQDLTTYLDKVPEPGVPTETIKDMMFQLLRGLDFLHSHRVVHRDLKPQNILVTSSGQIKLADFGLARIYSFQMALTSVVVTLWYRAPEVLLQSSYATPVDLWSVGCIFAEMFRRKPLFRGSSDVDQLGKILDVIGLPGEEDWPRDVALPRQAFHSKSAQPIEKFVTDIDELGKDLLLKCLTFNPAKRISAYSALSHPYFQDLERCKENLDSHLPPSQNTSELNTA
Chain of CDK6/CycD1 (P24385 whole entry partner, species assumed): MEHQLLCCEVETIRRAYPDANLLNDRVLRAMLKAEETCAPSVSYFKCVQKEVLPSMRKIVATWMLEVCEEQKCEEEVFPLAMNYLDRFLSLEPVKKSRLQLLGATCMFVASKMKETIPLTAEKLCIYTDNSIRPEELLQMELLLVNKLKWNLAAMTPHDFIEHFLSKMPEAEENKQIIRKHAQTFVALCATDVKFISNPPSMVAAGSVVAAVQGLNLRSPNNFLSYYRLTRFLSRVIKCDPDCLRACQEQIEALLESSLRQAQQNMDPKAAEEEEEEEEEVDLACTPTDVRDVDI
Chain of CDK4/CycD3 (P11802 whole entry, species assumed): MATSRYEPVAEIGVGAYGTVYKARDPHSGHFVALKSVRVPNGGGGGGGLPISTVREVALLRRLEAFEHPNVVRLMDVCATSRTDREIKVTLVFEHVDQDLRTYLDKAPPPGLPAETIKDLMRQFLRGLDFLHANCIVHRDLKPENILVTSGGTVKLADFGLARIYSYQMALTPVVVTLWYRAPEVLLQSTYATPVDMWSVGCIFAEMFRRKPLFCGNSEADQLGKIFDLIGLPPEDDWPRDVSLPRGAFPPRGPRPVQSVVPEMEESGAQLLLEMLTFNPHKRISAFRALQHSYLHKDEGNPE
Chain of CDK4/CycD3 (P30281 whole entry partner, species assumed): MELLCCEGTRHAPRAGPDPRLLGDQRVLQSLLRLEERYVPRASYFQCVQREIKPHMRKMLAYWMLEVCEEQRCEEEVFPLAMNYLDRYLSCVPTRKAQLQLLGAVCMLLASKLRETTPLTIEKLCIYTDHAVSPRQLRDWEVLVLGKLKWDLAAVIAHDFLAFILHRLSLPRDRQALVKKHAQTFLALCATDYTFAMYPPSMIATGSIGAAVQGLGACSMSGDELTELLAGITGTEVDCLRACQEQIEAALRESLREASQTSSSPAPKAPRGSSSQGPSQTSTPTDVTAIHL

Row | IC50 (MCF-7-Palbo-R cells; read-out: AbsIC50) | IC50 (MCF-7-Palbo-R cells; read-out: ReIC50) | IC50 (CDK2/CycE1) | IC50 (CDK4/CycD3) | IC50 (CDK6/CycD1) | Structure (SMILES) | Bottom(%) (MCF-7-Palbo-R cells) | Top(%) (MCF-7-Palbo-R cells) | TGI (OVCAR-3 cells)
1 | 36 nM | 38 nM | < 10 nM | < 10 nM | < 10 nM | C[C@@]1(O)CCC[C@H]1n1c(=O)c(OC(F)F)cc2cnc(NC3CCN(S(C)(=O)=O)CC3)nc21 [Example 3] | 6.317% | 98.857% | 71.3%
2 | 54 nM | 49 nM |  |  |  | C[C@@]1(O)CCC[C@H]1n1c(=O)c(C(F)F)cc2cnc(NC3CCN(S(C)(=O)=O)CC3)nc21 [PF-06873600, reference compound] | 7.487% | 98.896% | 52.6%
